In patent publication US20200024223A1, “CRYSTALLINE SALTS OF (4S,4AS,5AR,12AS)-4-DIMETHYLAMINO-3,10,12,12A-TETRAHYDROXY-7-[(METHOXY(METHYL)AMINO)-METHYL]-1,11-DIOXO-1,4,4A,5,5A,6,11,12A-OCTAHYDRO-NAPHTHACENE-2-CARBOXYLIC ACID AMIDE AND METHODS OF USING THE SAME” (priority 2011, published 2020):
≈ marks a conversion by molar mass, not a printed value. Where “and” joins values, the source holds several entries; their conditions need not be identical. Equal values may be shown once. Where a name gives a salt, the structure may show the parent alone.

How the values were obtained:
E. coli = assay: In vitro MIC testing, antibacterial spectrum of activity; format: cell-based
[1] = Advantages and disadvantages of solid forms (hygroscopicity, milling/pressing, storage); format: physicochemical; conditions: for Hygroscopicity: relative humidity (RH)
Text: One measure of the stability of the physical form of the salt is hygroscopicity, which is the propensity of a substance to absorb or adsorb water molecules from the surrounding environment. Whenever moisture can promote degradation, the salt is stable if it is non-hygroscopic or mildly hygroscopic above 70% relative humidity (RH). In preferred embodiments, the salt is non-hygroscopic or mildly hygroscopic above 80% RH, and in more preferred embodiments, the salt is non-hygroscopic or mildly hygroscopic to 90% RH. “Non-hygroscopic or mildly hygroscopic” as used herein refers to a compound at about 40° C. and at an RH of about 75%, existing over about 80% w/w in solid crystalline form, preferably over about 90% w/w in solid crystalline form, that absorbs less than 10% w/w water, and preferably, less than 5% w/w water in 8 hours or less. Hygroscopicity (hygroscopic degree) is calculated based on increase in weight in a compound at comparative points of measurement. Another measure of physical stability is the crystal form of the salt, which may be measured by XPRD. The stability of Crystalline Mono Hydrochloride Salt was compared to the amorphous mono hydrochloride salt of Comparative Example 2.

[2] = Storage stability by HPLC-UV (chemical purity, β-isomer content, total impurity content); format: physicochemical; conditions: for Chemical Purity at 0 days / β-isomer content at 0 days: 0 days (after synthesis); for Chemical Purity at 75 days / β-isomer content at 75 days: stored in glass vial approximately 75 days at ambient conditions; for Chemical Purity at 7 days, 40° C. and 75% RH / β-isomer content at 7 days, 40° C. and 75% RH: storage 7 days at 40° C. and 75% RH
Procedure: The lower the β-isomer content, the higher the chemical purity of the salt. The β-isomer content is measured after synthesis of the salt and compared with the measured β-isomer content after storage for a designated period of time.
Another measure of chemical purity is defined by the content of other related impurities, by-products or degradation products of the salt, which represents the […] of the compound. The lower the content of total impurities as measured by HPLC, generally, by HPLC-UV, the higher the chemical purity of the salt. The total impurity content is measured after synthesis of the salt and compared with the measured total impurity content after storage for a designated period of time.
In order to determine the stability of Crystalline Mono Hydrochloride Salt, the β-isomer content of the salt was determined by HPLC-UV analysis and compared to the β-isomer content calculated after the salt was stored in an amber glass vial for approximately 75 days at ambient conditions.
The β-isomer content of Comparative Example 2 was also determined by HPLC-UV analysis at 0 days and compared to the β-isomer content calculated after the compound was stored in a clear glass vial for approximately 75 days at ambient conditions.
HPLC-UV and XRPD analysis were conducted on samples of Crystalline Mono Hydrochloride Salt, Crystalline Mesylate Salt and Crystalline Sulfate Salt at 0 days and after storage for 7 days at 40° C. and 75% RH. FIGS. 1, 4 and 7 show the XRPD analysis of the Crystalline Mono Hydrochloride Salt, Crystalline Mesylate Salt and Crystalline Sulfate Salt at 0 days and after storage at 40° C. and 75% RH with the graphs overlaid for comparison.
The results of HPLC-UV analysis for the same samples of Crystalline Mesylate Salt and Crystalline Sulfate Salt are shown in Table 4.

[3] = XRPD analysis of crystal form after storage; format: physicochemical; conditions: 7 days at 40° C. and 75% RH vs 0 days
Procedure: XRPD analysis as disclosed herein was collected on a Bruker AXS C2 GADDS diffractometer using Cu Kα radiation (40 kV, 40 mA), automated XYZ stage, laser video microscope for auto-sample positioning and a HiStar 2-dimensional area detector. X-ray optics consisted of a single Gbbel multilayer mirror coupled with a pinhole collimator of 0.3 mm. The software used for data collection was GADDS for WNT 4.1.16 and the data was analyzed and presented using Diffrac Plus EVA v 9.0.0.2 or v 13.0.0.2. Samples were analyzed under ambient conditions as flat plate specimens using powder as received. Approximately 1-2 mg of the sample was lightly pressed on a glass slide to obtain a flat surface. Samples analyzed under non-ambient conditions were mounted on a silicon wafer with a heat conducting compound. The sample was then heated to the appropriate temperature at approximately 20° C.min^−1 and subsequently held isothermally for approximately 1 minute before data collection was initiated.
HPLC-UV and XRPD analysis were conducted on samples of Crystalline Mono Hydrochloride Salt, Crystalline Mesylate Salt and Crystalline Sulfate Salt at 0 days and after storage for 7 days at 40° C. and 75% RH. FIGS. 1, 4 and 7 show the XRPD analysis of the Crystalline Mono Hydrochloride Salt, Crystalline Mesylate Salt and Crystalline Sulfate Salt at 0 days and after storage at 40° C. and 75% RH with the graphs overlaid for comparison. […] The changes shown in the figure are in intensity and resolution rather than in peak position, which, if present, would indicate change in crystal form. Accordingly, Crystalline Mono Hydrochloride Salt and Crystalline Mesylate Salt are physically stable, as shown by FIGS. 1 and 4.

[4] = Thermo-gravimetric analysis (TGA); format: physicochemical
Procedure: TGA is used to determine changes in weight in relation to change in temperature, which may reveal degradation of the compound and the presence of solvates or hydrates. TGA analysis as disclosed herein was collected on a TA Instruments Q500 TGA equipped with a 16 position auto-sampler. The instrument was temperature calibrated using certified Alumel and Nickel. […] A nitrogen purge at 60 ml.min^−1 was maintained over the sample. The instrument control and data analysis software used was Advantage for Q Series v2.8.0.392 and Thermal Advantage v4.8.3 and the data was analyzed using Universal Analysis v4.4A. […] The observed apparent weight loss is due to instability of the machine. Table 5 below compares the DSC and TGA analysis of the crystalline salts of the present invention with the crystalline free base and Comparative Example 1.

S. agalactiae = assay: In vitro MIC testing, antibacterial spectrum of activity; format: cell-based
S. pyogenes = assay: as above; format: cell-based; conditions: S. pyogenes (32 isolates)
S. pneumoniae = assay: as above; format: cell-based, Streptococcus pneumoniae; conditions: S. pneumoniae [PSSP] (32 isolates)
[5] = system: Streptococcus spp. [Group C]; assay: as above; format: cell-based; conditions: Streptococcus spp. [Group C] (30 isolates)
[6] = from about 30° C. to about 200° C.
[7] = from about 200° C. to about 250° C.

## CC(=O)OCC1=C(C(=O)O)N2C(=O)[C@@H](NC(=O)Cc3cccs3)[C@H]2SC1 [Cephalothin]
E. coli; Escherichia coli, read-out: MIC50
  MIC50: 32 µg/mL (≈ 80.7 µM)

## CON(C)Cc1ccc(O)c2c1C[C@H]1C[C@H]3[C@H](N(C)C)C(O)=C(C(N)=O)C(=O)[C@@]3(O)C(O)=C1C2=O [Comparative Example 2, (4S,4aS,5aR,12aS)-4-dimethylamino-3,10,12,12a-tetrahydroxy-7-[(methoxy(methyl)amino)-methyl]-1,11-dioxo-1,4,4a,5,5a,6,11,12a-octahydro-naphthacene-2-carboxylic acid amide]
[1]
  glass transition: High glass transition (166° C.)
  β-isomer content upon storage under ambient conditions: Increase in β-isomer content upon
  form or β-isomer content upon milling or pressing: Increase in β-isomer content upon
  Hygroscopicity: Hygroscopic above 70% RH
[1]; 63% RH
  β-isomer content upon storage at 63% RH: Increase in β-isomer content upon
[1]; above 75% RH
  Change in form (amorphous to crystalline): Change in form (from amorphous
[1]; compared to Crystalline Mono Hydrochloride Salt
  rate of β-isomer formation upon exposure to solvent: Faster rate of β-isomer formation
[1]; storage and heat/cool cycle
  crystallization upon storage and heat/cool cycle: Stable to crystallization upon
[2]; HPLC-UV
  Chemical Purity at 0 days: 94.3%
  β-isomer content at 0 days: 4.4%
  Chemical Purity at 75 days: 90.4%
  β-isomer content at 75 days: 7.8%
[2]; storage for 75 days at ambient conditions vs 0 days
  increase of β-isomer content after storage: over 80%

## CON(C)Cc1ccc(O)c2c1C[C@H]1C[C@H]3[C@H](N(C)C)C(O)=C(C(N)=O)C(=O)[C@@]3(O)C(O)=C1C2=O [Crystalline Mesylate Salt, (4S,4aS,5aR,12aS)-4-dimethylamino-3,10,12,12a-tetrahydroxy-7-[(methoxy(methyl)amino)-methyl]-1,11-dioxo-1,4,4a,5,5a,6,11,12a-octahydro-naphthacene-2-carboxylic acid amide]
[3]
  crystal form by XRPD after storage: no change in crystal form
[2]; HPLC-UV
  Chemical Purity at 0 days: 92%
  β-isomer content at 0 days: 3%
  Chemical Purity at 7 days, 40° C. and 75% RH: 98%
  β-isomer content at 7 days, 40° C. and 75% RH: 2%
[4]; [6]
  TGA weight loss: 3% weight loss from about 30 °C to
[4]; [7]
  TGA weight loss: 7% weight loss from about 200 °C

## CON(C)Cc1ccc(O)c2c1C[C@H]1C[C@H]3[C@H](N(C)C)C(O)=C(C(N)=O)C(=O)[C@@]3(O)C(O)=C1C2=O [Crystalline Mono Hydrochloride Salt, (4S,4aS,5aR,12aS)-4-dimethylamino-3,10,12,12a-tetrahydroxy-7-[(methoxy(methyl)amino)-methyl]-1,11-dioxo-1,4,4a,5,5a,6,11,12a-octahydro-naphthacene-2-carboxylic acid amide]
[3]
  crystal form by XRPD after storage: no change in crystal form
[1]
  β-isomer content upon storage under ambient conditions: No increase in β-isomer content
  form or β-isomer content upon milling or pressing: No change in form or β-isomer
  Hygroscopicity: Non-hygroscopic to 90% RH
[1]; pressing and milling
  crystallinity upon pressing and milling: Some loss of crystallinity upon
[2]; HPLC-UV, 0 days
  total impurity content at 0 days: 4 % peak area
[2]; HPLC-UV
  Chemical Purity at 0 days: 93.8% and 95.8%
  β-isomer content at 0 days: 3.8%
  Chemical Purity at 75 days: 94.8%
  β-isomer content at 75 days: 3.8%
[2]; about 6 months at about 40° C. and about 75% RH
  total impurity content after storage: 6 % peak area
[4]; [6]
  TGA weight loss: 3% weight loss from about 30 °C to
[4]; [7]
  TGA weight loss: 14% weight loss from about 200 °C

## CON(C)Cc1ccc(O)c2c1C[C@H]1C[C@H]3[C@H](N(C)C)C(O)=C(C(N)=O)C(=O)[C@@]3(O)C(O)=C1C2=O [Crystalline Sulfate Salt, (4S,4aS,5aR,12aS)-4-dimethylamino-3,10,12,12a-tetrahydroxy-7-[(methoxy(methyl)amino)-methyl]-1,11-dioxo-1,4,4a,5,5a,6,11,12a-octahydro-naphthacene-2-carboxylic acid amide]
[3]
  crystal form by XRPD after storage: increased crystalline content
[2]; HPLC-UV
  Chemical Purity at 0 days: 88%
  β-isomer content at 0 days: 9%
  Chemical Purity at 7 days, 40° C. and 75% RH: 91%
  β-isomer content at 7 days, 40° C. and 75% RH: 9%
[4]; [6]
  TGA weight loss: 3% weight loss from about 30 °C to
[4]; [7]
  TGA weight loss: 14% weight loss from about 200 °C

## CN(C)[C@@H]1C(O)=C(C(N)=O)C(=O)[C@@]2(O)C(O)=C3C(=O)c4c(O)cccc4[C@@](C)(O)[C@H]3C[C@@H]12 [Tetracycline, tetracycline]
E. coli; E. coli [tetS] (7 isolates)
  MIC Range: 1 to 4 µg/mL
S. agalactiae; S. agalactiae [tetR] (7 isolates)
  MIC Range: 16 to 64 µg/mL
S. agalactiae; S. agalactiae [tetS] (3 isolates)
  MIC Range: 0.25-0.25 μg/mL

## Penicillin
S. pyogenes
  MIC50: ≤0.015 µg/mL
  MIC90: ≤0.015 µg/mL
  MIC Range: ≤0.015 to 0.25 µg/mL
S. pneumoniae
  MIC50: ≤0.015 µg/mL
  MIC Range: ≤0.015 to 0.12 µg/mL
[5]
  MIC50: ≤0.015 µg/mL
  MIC90: ≤0.015 µg/mL
  MIC Range: ≤0.015 to 0.03 µg/mL
S. agalactiae; S. agalactiae (31 isolates)
  MIC Range: ≤0.015 to 2 µg/mL
